Test results: patent publication EP0139005A1, “ANTITUMOR COMPOSITION, METHOD FOR TREATING TUMOR, AND USE OF THE COMPOSITION FOR TREATING TUMOR” (Yoshitomi Pharmaceutical Industries, Ltd., priority 1982, dated 1984)

Assays:
AH44 hepatoma = AH44 hepatoma implanted intraperitoneally, single dose, survival (Experimental Example 5); format: in vivo, male Donryu rats; settings: once, three days after implantation
Description: A plurality of groups each consisting of six male Donryu rats (7-8 weeks old) were respectively implanted intraperitoneally with 10^6 cells of AH44 hepatoma. Three days after the implantation, each test animal was once administered orally or intraperitoneally with Y-6430.

[1] = Acute toxicity in AH-44 carcinoma bearing rats (Experimental Example 11); settings: rat, in vivo, Donryu rats with AH-44 carcinoma cells
Procedure: (§1) Acute toxicity value when Y-6430 was administered intraperitoneally to male ddn mice was 1,500 mgjkg or more. 'Acute toxicity values when AH-44 carcinoma cells were implanted peritoneally and orally to Donryu rats were both 1,000 mg/kg or more.

Ehrlich carcinoma = Ehrlich carcinoma implanted intraperitoneally, survival (Experimental Example 6); format: in vivo, male ICR mice; settings: once daily for seven days
Procedure: A plurality of groups each consisting of six male ICR mice (7-8 weeks old) were implanted intraperitoneally with 2 x 10^6 Ehrlich carcinoma. After 24 hours, Y-6430 dissolved in physiological saline was administered intraperitoneally once daily for seven days.

AH272 hepatoma = assay: AH272 hepatoma, survival (Experimental Example 8); format: in vivo, male Donryu rats; settings: once daily from third to sixth day, control 7.9 days
Procedure: A plurality of groups each consisting of six male Donryu rats (7-8 weeks old) were implanted with 2 x 10^6 cells of AH272 hepatoma. After the implantation, Y-6430 dissolved in physiological saline was administered intraperitoneally once daily within the period from the third to sixth day, and the average survival days were calculated, the result being shown in Table 9.
All the test animals were dead within 30 days.

[2] = Acute toxicity in mice (Experimental Example 11); settings: mouse, in vivo, ip; administered intraperitoneally, male ddn mice
Procedure: as §1

## CCOC(=O)[C@@H](N)CSC(=O)NC.Cl [Y-6430, S-methylcarbamoyl-L-cysteine ethyl ester hydrochloride]
AH44 hepatoma; 500 mg/kg p.o.
  30-day Survivors: 0/6
  Average Survival Time: 11.2 days
AH44 hepatoma; 1,000 mg/kg i.p.
  30-day Survivors: 1/6
  Average Survival Time: 14.7 days
AH44 hepatoma; 1,000 mg/kg p.o.
  30-day Survivors: 0/6
  Average Survival Time: 10.8 days
[1]; ip, peritoneally
  LD50: ≥ 1000 mg/kg
[1]; po, orally
  LD50: ≥ 1000 mg/kg
Ehrlich carcinoma; 50 mg/kg/day i.p.
  30-day Survivors: 0/12
  Average Survival Time: 18.6 days
Ehrlich carcinoma; 100 mg/kg/day i.p.
  30-day Survivors: 6/12
  Average Survival Time: 26.0 days
AH272 hepatoma; 100 mg/kg/day i.p.
  Average Survival Time: 10.5 days
AH272 hepatoma; 250 mg/kg/day i.p.
  Average Survival Time: 15.0 days
[2]
  LD50: ≥ 1500 mg/kg
